The source of these data is ChEMBL document CHEMBL5500381, “Antiviral drug discovery: Pyrimidine entry inhibitors for Zika and dengue viruses” (Eur J Med Chem, 2024).

Data set [1] can be described thus: Cytotoxicity against African green monkey Vero cells assessed as cell viability measured after 72 hrs by MTT assay. As to conditions: chlorocebus sabaeus. The format is toxicity, cell-based.
Data set [2] concerns dengue virus type 2. The data set is described as follows: Anti-viral activity against DENV-2 Thailand/16681/1984 strain infected in african green monkey Vero cells at 0.1 MOI assessed as reduction in virus yield measured after 48 hrs by virus reduction assay. The format is functional, organism-based. To be noted: Thailand/16681/1984, Vero.
A short description of data set [3]: Selectivity index, ratio of CC50 for cytotoxicity against African green monkey Vero cells to EC50 for anti-viral activity against DENV-2 Thailand/16681/1984 strain. It counts as toxicity, cell-based. As to conditions: read-out: Selectivity Index.
Data set [4] deals with Zika virus. The data set is described as follows: Anti-viral activity against ZIKV Argentine strain INEVH116141 infected in african green monkey Vero cells at 0.1 MOI assessed as reduction in virus yield measured after 48 hrs by virus reduction assay. It counts as functional, organism-based.
Data set [5] can be described thus: Selectivity index, ratio of CC50 for cytotoxicity against African green monkey Vero cells to EC50 for anti-viral activity against ZIKV Argentine strain INEVH116141. As to conditions: read-out: Selectivity Index. It counts as toxicity, cell-based.
The nature of data set [6]: Solubility of the compound in phosphate-buffered saline solution (PBS,pH 7.4) incubated for 24 hrs by shake-flask method. The format is physicochemical.
Data set [7] in a line: Solubility of the compound in simulated intestinal fluid (SIF,pH 6.8) incubated for 24 hrs by shake-flask method. The format is ADME.
Data set [8] can be described thus: Solubility of the compound in simulated gastric fluid (SGF,pH 1.2) incubated for 24 hrs by shake-flask method. It counts as ADME.
Data set [9] is described as follows: Permeability of the compound by PAMPA assay. It counts as ADME. On the technique in general: The PAMPA barrier holds no transporters, so it reflects passive diffusion.
Data set [10] is described as follows: Plasma stability in human plasma measured at 4 hrs. The format is ADME, cell-free.
Data set [11] in a line: Plasma stability in mouse plasma measured at 4 hrs. The format is ADME, cell-free.

≈ marks a conversion by molar mass, not a printed value. Bounds are passed on as bounds.

In the case of `FC(F)(F)c1cc(Nc2ccc(Cl)cc2)nc(NCCN2CCCCC2)n1`, the CC50 at 72 h in data set [1] is 18.8 µM. Besides, the EC50 in [2] and in data set [4] was 10 µM in each case. The selectivity ratio in [3] and in [5] was 1.88 each time.
With `Nc1ccc(-c2ccc(Nc3cc(C(F)(F)F)nc(NCCN4CCCCC4)n3)cc2)cc1`, the CC50 at 72 h in [1] was 17.8 µM. The EC50 in data set [2] and in data set [4] was over 10 µM in each case. Moreover, the selectivity ratio in data set [3] and in [5] was under 2 each time.
With `c1ccc(-c2ccc(Nc3ccnc(NCCN4CCCCC4)n3)cc2)cc1`, the solubility (thermodynamic) at 24 h was 32 µg/mL (≈ 85.7 µM) in [6], 324 µg/mL (≈ 867 µM) in data set [7] and 108 µg/mL (≈ 289 µM) in data set [8].
Turning to `O=C(Nc1cc(C(F)(F)F)nc(NCCN2CCCCC2)n1)c1ccc(Cl)cc1`, the CC50 at 72 h in data set [1] is 20.8 µM. For the same molecule, the EC50 in data set [2] and in data set [4] was over 20 µM in each case. Moreover, the selectivity ratio in [3] and in data set [5] was under 1.05 throughout.
Turning to `N#Cc1cc(Nc2ccc(-c3ccccc3)cc2)nc(NCCN2CCCCC2)n1`, the CC50 at 72 h in data set [1] was found to be 25.4 µM. In addition, the values for the EC50 in data set [2] and in data set [4] were 8.06 µM and 4.31 µM, respectively. For the same molecule, the figures for the selectivity ratio in data set [3] and in data set [5] were 3.15 and 5.89, respectively.
`Fc1cc(Cl)ccc1CNc1cc(C(F)(F)F)nc(NCCN2CCCCC2)n1`: the CC50 at 72 h in data set [1] turned out to be 9.07 µM.
Consider `CC1(C)CC(Nc2nccc(NCc3ccc(Cl)cc3)n2)CC(C)(C)N1`, for which the CC50 at 72 h in data set [1] worked out at 7.2 µM. The concentration for a half-maximal effect (EC50) is 4.67 µM in data set [2] and 8.14 µM in data set [4]. Also, the selectivity ratio in data set [3] worked out at 1.54; in data set [5] it was 0.88.
For the molecule `COc1ccc(CNc2cc(C(F)(F)F)nc(NCCN3CCCCC3)n2)cc1`, in data set [1], the CC50 at 72 h amounted to 38.2 µM. Further, the EC50 in [2] was over 20 µM; in data set [4], 12.5 µM. Also, the figures for the selectivity ratio in data set [3] and in [5] were under 2 and 3.07, respectively.
`FC(F)(F)c1cc(NCc2ccc(-c3ccccc3)cc2)nc(NCCN2CCCCC2)n1`: the CC50 at 72 h in [1] was 36.9 µM. For the same molecule, the EC50 in data set [2] and in [4] was over 20 µM throughout. Also, the selectivity ratio in data set [3] and in [5] was under 2 each time.
`CN(Cc1ccc(Cl)cc1)c1cc(C(F)(F)F)nc(NCCN2CCCCC2)n1`: the CC50 at 72 h in [1] turned out to be 8.18 µM.
In the case of `CC1(C)CC(Nc2nc(Nc3ccc(-c4ccccc4)cc3)c3sccc3n2)CC(C)(C)N1`, the CC50 at 72 h in [1] worked out at 6.4 µM. Besides, the figures for the EC50 in data set [2] and in data set [4] were 4.95 µM and 4.15 µM, respectively. In addition, the selectivity ratio in data set [3] came out at 1.3; in data set [5], 1.54.
On to `FC(F)(F)c1cc(Nc2ccc(-c3ccccc3)cc2)nc(NCCN2CCCCC2)n1`, for which the CC50 at 72 h in data set [1] worked out at 5.74 µM. Besides, the results for the EC50 in [2] and in data set [4] were 0.76 µM and 1.11 µM, respectively. Besides, the values for the selectivity ratio in data set [3] and in [5] were 7.55 and 5.12, respectively. Besides, the thermodynamic solubility at 24 h is 4 µg/mL (≈ 9.06 µM) in data set [6], 10 µg/mL (≈ 22.7 µM) in data set [7] and 506 µg/mL (≈ 1150 µM) in [8]. Besides, the permeability result in data set [9] was “Impermeable”. The Stability entry in [10] and in [11] was “Stable” throughout.
Take `FC(F)(F)c1cc(Nc2ccc(C3CCCCC3)cc2)nc(NCCN2CCCCC2)n1`: in [1], the CC50 at 72 h amounted to 8.39 µM.
Take `FC(F)(F)c1cc(NCc2cccnc2)nc(NCCN2CCCCC2)n1`: in data set [1], the CC50 at 72 h is over 200 µM. The half-maximal effective concentration (EC50) in data set [2] and in [4] was over 50 µM in each case. Also, the selectivity ratio in data set [3] and in data set [5] was under 4 in each case.
Regarding `CC1(C)CC(Nc2nc(C#N)cc(Nc3ccc(-c4ccccc4)cc3)n2)CC(C)(C)N1`, the CC50 at 72 h in data set [1] is 7.5 µM. For the same molecule, the EC50 in data set [2] came out at 1.96 µM; in data set [4] it was 4.4 µM. The selectivity ratio was determined as 3.82 in [3] and 1.7 in data set [5].
On the same counts, the results for `CC1(C)CC(Nc2nccc(Nc3ccc(Cl)cc3)n2)CC(C)(C)N1` are 5.19 µM, 3.15 µM, 2.48 µM, 1.64 and 2.09.
As to `Fc1ccc(CNc2cc(C(F)(F)F)nc(NCCN3CCCCC3)n2)cc1`, in data set [1], the CC50 at 72 h amounted to 47.6 µM. The EC50 in data set [2] was 16.1 µM; in data set [4] it was 16.8 µM. In addition, the selectivity ratio in data set [3] was 2.96; in data set [5], 2.84.
As to `Nc1ccc(CNc2cc(C(F)(F)F)nc(NCCN3CCCCC3)n2)cc1`, in [1], the CC50 at 72 h turned out to be 8.92 µM.
For `CC1(C)CC(Nc2nccc(Nc3ccc(-c4ccccc4)cc3)n2)CC(C)(C)N1`, the thermodynamic solubility at 24 h in data set [6] is 93 µg/mL (≈ 232 µM); in [7] it was 580 µg/mL (≈ 1440 µM); in data set [8], 2280 µg/mL (≈ 5690 µM).
On to `c1ccc(-c2ccc(Nc3nc(NCCN4CCCCC4)nc4ccsc34)cc2)cc1`, for which the CC50 at 72 h in data set [1] was 7.5 µM. Also, the EC50 in data set [2] came out at 8.15 µM; in data set [4], 4.1 µM. Further, the results for the selectivity ratio in [3] and in data set [5] were 0.92 and 1.83, respectively.
On the same counts, the results for `Cc1ccc(CNc2cc(C(F)(F)F)nc(NCCN3CCCCC3)n2)cc1` are 49 µM, over 20 µM, 13.5 µM, under 2.5 and 3.63.
As to `CC1(C)CC(Nc2ncnc(Nc3ccc(-c4ccccc4)cc3)n2)CC(C)(C)N1`, the CC50 at 72 h in data set [1] is 5.01 µM.
As for `CC1(C)CC(Nc2nc(Nc3ccc(-c4ccccc4)cc3)cc(C(F)(F)F)n2)CC(C)(C)N1`, in data set [1], the CC50 at 72 h turned out to be 2.06 µM.

As usually defined, the CC50 is the concentration at which the toxic effect on the cells reaches its halfway point. The term EC50 denotes the concentration giving half of the maximal effect. The term thermodynamic solubility denotes the concentration in solution at equilibrium with solid.
